# Entries after “also recorded” stand apart in the source; their conditions may differ.
# Legend:
# [1] = test system: failing human right ventricular trabeculae; assay: contractile response of isolated right ventricular trabeculae from failing human hearts; details: for maximal isoproterenol-stimulated systolic tension: failing hearts
# Description: (§1) Nonfailing hearts were obtained from local potential organ donors whose hearts were not transplanted because of physical or ABO blood type incompatibility. Failing hearts were from patients with end-stage heart failure due to ischemic or non-ischemic dilated cardiomyopathies who underwent cardiac transplantation. The demographic characteristics of the hearts are provided in Results. The contractile response of isolated, field stimulated, human trabeculae was assessed as previously described {1755; a-c}. Trabeculae of uniform size (1 to 2×6 to 8 mm) were mounted in 80 ml muscle bath chambers in Tyrode's solution at pH 7.45 bubbled with 95% O2-5% CO2 at 36^0. After equilibration, a tension of 75% of Lmax was applied to each individual trabeculum. Field-stimulation by a 5-ms pulse at 10% above threshold was then applied, and after equilibration full dose-response curves to isoproterenol, bucindolol or xamoterol were performed using the indicated concentrations and application of increasing doses every 5 minutes. In experiments in which forskolin was used to enhance signal transduction {e,f}, 10^−6 M of this adenylyl cyclase activator was applied to the tissue baths 15-20 minutes prior to the performance of dose-response curves, and allowed to achieve stability of tension response. Systolic tension at each dose was calculated as the stimulated tension in mN/mm^2 minus baseline tension. The maximum tension, concentration of isoproterenol that produced 50% of the maximum developed tension (EC50) and curve slope were computed by nonlinear repeated measures analysis of covariance. […] Statistical methods were employed as described in Examples 3 and 4.
# [2] = test system: nonfailing human right ventricular trabeculae; assay: contractile response of isolated right ventricular trabeculae from nonfailing human hearts
# Description: as §1
# heart failure patients = details: cited from earlier work
# norepinephrine = details: 3 months, MOXCON Trial; cited from earlier work
# [3] = test system: β1-Arg389 transgenic mice (ventricular expression of human β1AR); assay: chronic β-blockade in transgenic mice, Western blots of ventricular signaling and Ca2+-handling proteins; assay type: in vivo, mouse; details: 0.5 mg/ml in drinking water for 6 months; ANOVA P<0.002
# Description: (§2) Using the α-myosin heavy chain promoter, transgenic mice with targeted ventricular expression of the human β1AR (Arg389 or Gly389 forms) were utilized to ascertain allele-specific responses to chronic administration of the […] propranolol. […] The generation of these mice and their partial characterization has recently been reported in detail elsewhere (Perez et al, 2003). For the current studies, 3-month-old mice of both genotypes, as well as nontransgenic mice, were treated with propranolol (0.5 mg/ml) in their drinking water, or water without propranolol (control) continuously for 6 months. Hearts were then removed and ventricular protein extracts prepared. These were subjected to Western blotting to ascertain expression of the following proteins using methods previously described (Perez et al., 2003): Gαs, Gαi2, G-protein coupled receptor kinase-2 (GRK2), adenylyl cyclase type 5 (AC5), total phospholamban (T-PLN), phosphorylated phospholamban (P-PLN) and sarcoplasmic endoplasmic reticulum calcium ATPase-2A (SERCA). Treatment effect was assessed by comparing expression of the proteins of untreated and propranolol treated mice, within genotype, by ANOVA. The study was approved by the University of Cincinnati Animal Use and Care Committee.
# [4] = test system: β1-Gly389 transgenic mice (ventricular expression of human β1AR); assay: as above; assay type: in vivo, mouse; details: 0.5 mg/ml in drinking water for 6 months; P=0.67
# Description: as §2
# [5] = U.S. enrolled patients in MERIT-HF
structure (smiles),measurement,setting,value
COc1ccccc1OCCNCC(O)COc1cccc2[nH]c3ccccc3c12 (stereo not drawn) [carvedilol],positive inotropic signal compared with bucindolol,"[1]; failing heart, forskolin pretreated preparations",more of a positive inotropic signal than bucindolol
CC(C)NCC(O)c1ccc(O)c(O)c1 (stereo not drawn) [isoproterenol],maximal isoproterenol-stimulated systolic tension,[1]; β1-Arg389 homozygotes,9.4±1.9 mN/mm^2
same,maximal isoproterenol-stimulated systolic tension,[1]; β1-Gly389 carriers,2.4±0.60 mN/mm^2
same,maximal isoproterenol-stimulated systolic tension,[2]; β1-Arg389 homozygotes,13±2.5 mN/mm^2
same,maximal isoproterenol-stimulated systolic tension,[2]; β1-Gly389 carriers,5.2±1.4 mN/mm^2
"COCCc1ccc(OCC(O)CNC(C)C)cc1.COCCc1ccc(OCC(O)CNC(C)C)cc1.O=C(O)CCC(=O)O (stereo not drawn) [metoprolol CR/XL, metoprolol succinate CR/XL]",Mortality + HF Hospitalization hazard ratio vs placebo,heart failure patients; MERIT-HF US Pts (n = 1071/3991),~0.84; 200 Ev
same,mortality plus heart failure hospitalization hazard ratio vs placebo,heart failure patients; MERIT-HF entire cohort (UCL 0.80),0.69
same,mortality increase,heart failure patients; [5],5%
same,mortality+HF hospitalization decrease,heart failure patients; [5],16%
COc1nc(C)nc(Cl)c1N=C1NCCN1 [moxonidine],relative reduction in norepinephrine,norepinephrine,24%
CC(C)NCC(O)COc1cccc2ccccc12 (stereo not drawn) [propranolol],treatment effect on expression of cardiac signaling and Ca2+-handling proteins,[3],overall treatment response
same,treatment effect on expression of cardiac signaling and Ca2+-handling proteins,[4],no effect
O=C(NCCNCC(O)COc1ccc(O)cc1)N1CCOCC1 (stereo not drawn) [xamoterol],inotropic effect on systolic force (dose-response curve slope),"[1]; β1AR Arg/Arg, forskolin pretreatment",increase in force
same,inotropic effect on systolic force (dose-response curve slope),"[1]; β1AR Arg/Arg, forskolin pretreatment, listed as Xamoterol",positive inotropic effect
same,inotropic effect on systolic force (dose-response curve slope),"[1]; β1AR Arg/Arg, without forskolin",increase in force; also recorded: positive inotropic effect
same,inotropic effect on systolic force (dose-response curve slope),"[1]; β1AR Gly carriers, forskolin pretreatment",increase in force
same,inotropic effect on systolic force (dose-response curve slope),"[1]; β1AR Gly carriers, forskolin pretreatment, listed as Xamoterol",positive inotropic effect
same,inotropic effect on systolic force (dose-response curve slope),"[1]; β1AR Gly carriers, without forskolin",negative inotropic effect

# Reference: patent US8093286B2, “Methods for treatment with bucindolol based on genetic targeting” (The Regents of the University of Colorado, a body corporate, priority 2004, dated 2012)
